Measured values: ChEMBL document CHEMBL1201862, “PubChem BioAssay data set” (2004)
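Dose response: 5 concentrations. Exposure: 48 h. Format: 96-well plates. Endpoint: linear interpolation; highest concentration if not reached. Abbreviation: GI50, concentration required for 50% inhibition of growth.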 Activity calls are given as the source filed them. Rule as the data show it: active = GI50 up to about 1.1 µM and inactive = higher.

How the values were obtained:
Experiment in all cases: growth of human tumour cells (NCI), 48 h
UACC-257 = tested on: UACC-257
SNB-75 = tested on: SNB-75
SF-539 = tested on: SF-539
CCRF-CEM = tested on: CCRF-CEM
LOX IMVI = tested on: LOX IMVI
OVCAR-4 = tested on: OVCAR-4
NCI-H522 = tested on: NCI-H522
RXF 393 = tested on: RXF 393
TK-10 = tested on: TK-10
SN12C = tested on: SN12C
SNB-19 = tested on: SNB-19
HOP-92 = tested on: HOP-92
NCI/ADR-RES = tested on: NCI/ADR-RES
MOLT-4 = tested on: MOLT-4
CAKI-1 = tested on: CAKI-1
NCI-H23 = tested on: NCI-H23
RPMI-8226 = tested on: RPMI-8226
UO-31 = tested on: UO-31
IGROV-1 = tested on: IGROV-1
KM12 = tested on: KM12

SMILES	GI50 (UACC-257)	GI50 (SNB-75)	GI50 (SF-539)	GI50 (CCRF-CEM)	GI50 (LOX IMVI)	GI50 (OVCAR-4)	GI50 (NCI-H522)	GI50 (RXF 393)	GI50 (TK-10)	GI50 (SN12C)	GI50 (SNB-19)	GI50 (HOP-92)	GI50 (NCI/ADR-RES)	GI50 (MOLT-4)	GI50 (CAKI-1)	GI50 (NCI-H23)	GI50 (RPMI-8226)	GI50 (UO-31)	GI50 (IGROV-1)	GI50 (KM12)
Cc1cccc(C)c1NC(=O)Nc1ccc(S(N)(=O)=O)cc1	> 100 µM (inactive)	> 100 µM (inactive)	> 100 µM (inactive)	> 100 µM (inactive)	> 100 µM (inactive)	> 100 µM (inactive)	> 100 µM (inactive)	> 100 µM (inactive)	> 100 µM (inactive)	> 100 µM (inactive)	> 100 µM (inactive)	> 100 µM (inactive)	> 100 µM (inactive)	> 100 µM (inactive)	> 100 µM (inactive)	> 100 µM (inactive)	> 100 µM (inactive)	> 100 µM (inactive)	> 100 µM (inactive)	> 100 µM (inactive)
C=C1C[C@@H](O)C[C@@]2(C)C[C@@H]3OC(=O)C(=C)[C@@H]3C[C@H]12	4.43 µM (inactive)	8.47 µM (inactive)	9.68 µM (inactive)	3.56 µM (inactive)	4.46 µM (inactive)	15.2 µM (inactive)	7.78 µM (inactive)	6.34 µM (inactive)	–	5.57 µM (inactive)	5.21 µM (inactive)	13.1 µM (inactive)	6.55 µM (inactive)	3.2 µM (inactive)	4.22 µM (inactive)	15.9 µM (inactive)	2.92 µM (inactive)	4.85 µM (inactive)	11.2 µM (inactive)	6.62 µM (inactive)
COC(=O)C1C(O)C(C)C(O)C(C)(O)/C=C\C=C(C)C(=O)Nc2c(C)c(OC(C)=O)c3c(c2O)C(=O)C(C)=C2OCOC(=C23)C(C)=CC(C)(O)C(O)C(C)C1OC(C)=O (centres undefined)	26.1 µM (inactive)	31 µM (inactive)	41.2 µM (inactive)	34.7 µM (inactive)	20.4 µM (inactive)	75 µM (inactive)	32.4 µM (inactive)	22.4 µM (inactive)	–	24 µM (inactive)	89.9 µM (inactive)	2.52 µM (inactive)	> 100 µM (inactive)	38 µM (inactive)	47.5 µM (inactive)	24.4 µM (inactive)	33.3 µM (inactive)	> 100 µM (inactive)	30.1 µM (inactive)	26.7 µM (inactive)
CCOC(=O)C1=NN(c2ccc(Cl)cc2)C2=CC(C)=NN(C)C(=S)N21	> 100 µM (inactive)	26.8 µM (inactive)	22.6 µM (inactive)	> 100 µM (inactive)	47.1 µM (inactive)	37.6 µM (inactive)	20.7 µM (inactive)	25.4 µM (inactive)	22 µM (inactive)	51.5 µM (inactive)	41.5 µM (inactive)	30.8 µM (inactive)	65 µM (inactive)	> 100 µM (inactive)	19.9 µM (inactive)	42.1 µM (inactive)	> 100 µM (inactive)	> 100 µM (inactive)	44.8 µM (inactive)	> 100 µM (inactive)
CC(=O)OCC1OC(Nc2ncc(-c3ccc(C)cc3)s2)C(OC(C)=O)C(OC(C)=O)C1OC(C)=O (centres undefined)	25.6 µM (inactive)	39 µM (inactive)	43.8 µM (inactive)	29.1 µM (inactive)	26.9 µM (inactive)	27 µM (inactive)	64.9 µM (inactive)	47.3 µM (inactive)	–	25.4 µM (inactive)	> 100 µM (inactive)	42.6 µM (inactive)	26.3 µM (inactive)	24.6 µM (inactive)	29 µM (inactive)	50.7 µM (inactive)	24.7 µM (inactive)	19.8 µM (inactive)	66.5 µM (inactive)	36.1 µM (inactive)
CN(C)CCOc1cc2c(c3ccccc13)-c1ccccc1C2=O	1.72 µM (inactive)	1.8 µM (inactive)	1.76 µM (inactive)	1.52 µM (inactive)	1.05 µM (active)	1.12 µM (active)	1.32 µM (inactive)	2.86 µM (inactive)	–	1.58 µM (inactive)	2.7 µM (inactive)	0.933 µM (active)	0.818 µM (active)	0.339 µM (active)	0.388 µM (active)	2.36 µM (inactive)	1.56 µM (inactive)	1.5 µM (inactive)	1.88 µM (inactive)	1.46 µM (inactive)
CCOC(=O)C1(C(F)(F)F)N=C(CC)OC(N2CCOCC2)=N1 (centres undefined)	> 100 µM (inactive)	> 100 µM (inactive)	> 100 µM (inactive)	> 100 µM (inactive)	> 100 µM (inactive)	> 100 µM (inactive)	> 100 µM (inactive)	> 100 µM (inactive)	> 100 µM (inactive)	> 100 µM (inactive)	> 100 µM (inactive)	> 100 µM (inactive)	> 100 µM (inactive)	> 100 µM (inactive)	> 100 µM (inactive)	> 100 µM (inactive)	> 100 µM (inactive)	> 100 µM (inactive)	> 100 µM (inactive)	> 100 µM (inactive)
Cc1cc(O)c2c(c1O)C(=O)C13C(=C(O)C4C(O)C1C1C(O)C3C(O)=C3C(=O)c5c(O)cc(C)c(O)c5C(=O)C341)C2=O (centres undefined)	0.267 µM (active)	0.0499 µM (active)	0.134 µM (active)	0.035 µM (active)	0.106 µM (active)	0.385 µM (active)	0.185 µM (active)	0.0491 µM (active)	–	0.0471 µM (active)	0.668 µM (active)	0.24 µM (active)	0.15 µM (active)	0.0541 µM (active)	0.209 µM (active)	0.207 µM (active)	0.0121 µM (active)	0.0392 µM (active)	0.137 µM (active)	0.0726 µM (active)
O=C(O)c1ccc(C(=O)O)c2c(C(=O)O)ccc(C(=O)O)c12	> 100 µM (inactive)	> 100 µM (inactive)	> 100 µM (inactive)	–	> 100 µM (inactive)	> 100 µM (inactive)	> 100 µM (inactive)	> 100 µM (inactive)	> 100 µM (inactive)	> 100 µM (inactive)	> 100 µM (inactive)	> 100 µM (inactive)	> 100 µM (inactive)	> 100 µM (inactive)	> 100 µM (inactive)	> 100 µM (inactive)	> 100 µM (inactive)	> 100 µM (inactive)	> 100 µM (inactive)	> 100 µM (inactive)
